From ChEMBL document CHEMBL1123159, “Quantitative evaluation of the beta 2-adrenoceptor intrinsic activity of N-tert-butylphenylethanolamines” (J Med Chem, 1986)

Key:
[1] = molecular target: Beta-2 adrenergic receptor (Bos taurus, UniProt Q28044); assay: Apparent binding affinity constant to beta-2 adrenergic receptor determined using [3H]DHA; conditions: read-out: KD app
[2] = molecular target: Beta-2 adrenergic receptor (Bos taurus) (UniProt Q28044); assay: Concentration required for maximal (95-100%) beta-2 adrenergic receptor occupancy
Sequence of Beta-2 adrenergic receptor (Bos taurus) (Q28044 whole entry, looked up): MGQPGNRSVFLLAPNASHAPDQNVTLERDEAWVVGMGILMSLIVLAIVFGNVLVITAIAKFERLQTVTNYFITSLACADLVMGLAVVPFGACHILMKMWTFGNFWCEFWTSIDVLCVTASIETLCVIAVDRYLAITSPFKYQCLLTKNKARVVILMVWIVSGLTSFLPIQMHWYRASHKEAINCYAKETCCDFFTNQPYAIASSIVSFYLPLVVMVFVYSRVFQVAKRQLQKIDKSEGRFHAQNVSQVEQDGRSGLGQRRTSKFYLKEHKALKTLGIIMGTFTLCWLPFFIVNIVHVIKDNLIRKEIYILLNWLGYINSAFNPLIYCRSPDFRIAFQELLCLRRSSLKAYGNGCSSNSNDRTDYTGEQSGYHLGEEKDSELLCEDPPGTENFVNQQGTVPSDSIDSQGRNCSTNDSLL

[3] = molecular target: Beta-2 adrenergic receptor (Bos taurus) (UniProt Q28044); assay: Beta-2 adrenergic receptor intrinsic symphaticomimetic activity relative to salbutamol; type: functional
[4] = molecular target: Beta-2 adrenergic receptor (Bos taurus) (UniProt Q28044); assay: Intrinsic activity was measured as concentration of beta-2 adrenergic receptor agonist required for cAMP production; type: functional
[5] = log(1/ISA) value of the compound

Sequence of Beta-2 adrenergic receptor (Q28044 whole entry): as the sequence (Q28044 whole entry, looked up) above

Row | Structure (SMILES) | Kd [1] [nM] | Concentration [2] [µM] | ISA [3] | cAMP production (pM min-1 mg-1) [4] | Log 1/ISA [5]
1 | CC(C)(C)NCC(O)c1ccc(O)cc1 (stereo not given) | 1350 | 100 | 0.8 | 97 | 0.1
2 | CC(C)(C)NCC(O)c1cc(O)cc(O)c1 (stereo not given) |  |  | 0.41 | 50 | 
3 | CC(C)(C)NCC(O)c1ccccc1Cl (stereo not given) [TULOBUTEROL] |  | 10 | 0.5 | 61 | 0.3
4 | CC(C)(C)NCC(O)c1cc(Cl)c(N)c(Cl)c1 (stereo not given) |  | 1 | 0.53 | 64 | 
5 | CC(C)(C)NCC(O)c1cc(Cl)c(O)c(Cl)c1 (stereo not given) | 6470 | 300 | 0.39 | 47 | 0.41
6 | CC(C)(C)NCC(O)c1ccc(O)c(C(N)=O)c1 (stereo not given) | 1030 | 30 | 0.2 | 24 | 0.7
7 | CC(C)(C)NCC(O)c1ccc(O)c(CO)c1 (stereo not given) |  | 30 | 1 | 122 | 
8 | CC(C)(C)NCC(O)c1ccccc1 (stereo not given) | 2940 | 100 | 0.35 | 43 | 0.46
9 | CNc1cc(C(O)CNC(C)(C)C)ccc1O (stereo not given) | 560 | 30 | 0.95 | 115 | 0.02
10 | CC(C)(C)NCC(O)c1ccc(O)c(O)c1 (stereo not given) [COLTEROL] | 670 |  | 0.68 | 83 | 0.17
11 | CC(C)(C)NCC(O)c1ccc(O)c(N)c1 (stereo not given) | 2170 |  | 0.68 | 83 | 0.17
